Patent US20090054392A1, “NAPHTHYLPYRIMIDINE, NAPHTHYLPYRAZINE AND NAPHTHYLPYRIDAZINE ANALOGS AND THEIR USE AS AGONISTS OF THE WNT-BETA-CATENIN CELLULAR MESSAGING SYSTEM” (Wyeth, priority 2007, published 2009)

Test system: Dkk1-LRP5-TCF-Luciferase
Assay: Functional Dkk1-LRP5-TCF-Luciferase Assay in U2OS Cells
Conditions: for EC50 / fold induction at 2 µM / fold induction at 20 µM: Homo sapiens, U2OS; for fold induction at 2 µM: read-out: B = TCF ACTIVITY/DMSO CONTROL Fold induction @ 2.0 uM, 2.0 uM compound; for fold induction at 20 µM: read-out: C = TCF ACTIVITY/DMSO CONTROL Fold induction @ 20.0 uM, 20.0 uM compound; for A = MAX FOLD Induction/DMSO CONTROL: maximum fold induction over DMSO control

EC50 [µM] | A = MAX FOLD Induction/DMSO CONTROL [fold] | Compound | fold induction at 2 µM | fold induction at 20 µM
1.09 | 2.891 | CC(N)C1CCN(c2nccc(-c3ccc4ccccc4c3)n2)CC1 (stereo not shown) [1-{1-[4-(2-naphthyl)pyrimidin-2-yl]piperidin-4-yl}ethanamine] | 2.33 | 0.006
2.26 | 4.063 | NCC1CCN(c2nccc(-c3ccc4ccccc4c3)n2)C1 (stereo not shown) [1-{1-[4-(2-naphthyl)pyrimidin-2-yl]pyrrolidin-3-yl}methanamine] | 4.53 | 0.01
– | – | CC(C)COc1ccc2cc(-c3ccnc(N4CCC(CN)CC4)n3)ccc2c1 [1-{1-[4-(6-isobutoxy-2-naphthyl)pyrimidin-2-yl]piperidin-4-yl}methanamine] | 1.54 | –
1.06 | 3.233 | COc1ccc2cc(-c3ccnc(N4CCC(CN)CC4)n3)ccc2c1 [1-{1-[4-(6-methoxy-2-naphthyl)pyrimidin-2-yl]piperidin-4-yl}methanamine] | 2.27 | –
1.22 | 2.820 | Cc1ccc2cc(-c3ccnc(N4CCC(CN)CC4)n3)ccc2c1 [1-{1-[4-(6-methyl-2-naphthyl)pyrimidin-2-yl]piperidin-4-yl}methanamine] | 2.88 | –
– | – | NCC1CCN(c2nccc(-c3ccc4cc(-c5ccccc5)ccc4c3)n2)CC1 [1-{1-[4-(6-phenyl-2-naphthyl)pyrimidin-2-yl]piperidin-4-yl}methanamine] | 1.63 | –
– | – | CCCOc1ccc2cc(-c3ccnc(N4CCC(CN)CC4)n3)ccc2c1 [1-{1-[4-(6-propoxy-2-naphthyl)pyrimidin-2-yl]piperidin-4-yl}methanamine] | 1.33 | –
– | – | C=Cc1ccc2cc(-c3ccnc(N4CCC(CN)CC4)n3)ccc2c1 [1-{1-[4-(6-vinyl-2-naphthyl)pyrimidin-2-yl]piperidin-4-yl}methanamine] | 1.21 | –
– | – | NCC1CCN(c2cc(-c3ccc4ccccc4c3)cnn2)CC1 [1-{1-[5-(2-naphthyl)pyridazin-3-yl]piperidin-4-yl}methanamine] | 1.58 | 0.4
1.2 | 2.900 | NCC1CCN(c2ncc(-c3ccc4ccccc4c3)cn2)CC1 [1-{1-[5-(2-naphthyl)pyrimidin-2-yl]piperidin-4-yl}methanamine] | 3.1 | –
1.16 | 2.920 | NCC1CCN(c2cncc(-c3ccc4ccccc4c3)n2)CC1 [1-{1-[6-(2-naphthyl)pyrazin-2-yl]piperidin-4-yl}methanamine] | 1.6 | –
1.59 | 3.226 | NCC1CCN(c2cc(-c3ccc4ccccc4c3)ncn2)CC1 [1-{1-[6-(2-naphthyl)pyrimidin-4-yl]piperidin-4-yl}methanamine] | 2.79 | 1
– | – | NCc1ccc(-c2nccc(-c3ccc4ccccc4c3)n2)cc1 [1-{4-[4-(2-naphthyl)pyrimidin-2-yl]phenyl}methanamine] | 2.5 | –
– | – | NC[C@@H]1C[C@@H]2C[C@H]1CN2c1nccc(-c2ccc3ccccc3c2)n1 [1-{(1R,4R,5R)-2-[4-(2-naphthyl)pyrimidin-2-yl]-2-azabicyclo[2.2.1]hept-5-yl}methanamine] | 1.4 | –
– | – | NC[C@H]1C[C@@H]2C[C@H]1CN2c1nccc(-c2ccc3ccccc3c2)n1 [1-{(1R,4R,5S)-2-[4-(2-naphthyl)pyrimidin-2-yl]-2-azabicyclo[2.2.1]hept-5-yl}methanamine] | 1.8 | –
– | – | NC[C@@H]1C[C@H]2C[C@@H]1CN2c1nccc(-c2ccc3ccccc3c2)n1 [1-{(1S,4S,5R)-2-[4-(2-naphthyl)pyrimidin-2-yl]-2-azabicyclo[2.2.1]hept-5-yl}methanamine] | 1.1 | –
– | – | NC[C@H]1C[C@H]2C[C@@H]1CN2c1nccc(-c2ccc3ccccc3c2)n1 [1-{(1S,4S,5S)-2-[4-(2-naphthyl)pyrimidin-2-yl]-2-azabicyclo[2.2.1]hept-5-yl}methanamine] | 1.2 | –
– | – | c1ccc2cc(-c3ccnc(N4CC[C@@H](N5CCCCCC5)C4)n3)ccc2c1 [1-{(3R)-1-[4-(2-naphthyl)pyrimidin-2-yl]pyrrolidin-3-yl}azepane] | 1.25 | 1.3
3.64 | 5.120 | OC1CCCN([C@@H]2CCN(c3nccc(-c4ccc5ccccc5c4)n3)C2)C1 (stereo partly drawn) [1-{(3R)-1-[4-(2-naphthyl)pyrimidin-2-yl]pyrrolidin-3-yl}piperidin-3-ol] | 2.06 | 1.05

EC50 [µM] | A = MAX FOLD Induction/DMSO CONTROL [fold] | Compound | fold induction at 2 µM | fold induction at 20 µM
– | – | OC1CCN([C@@H]2CCN(c3nccc(-c4ccc5ccccc5c4)n3)C2)CC1 [1-{(3R)-1-[4-(2-naphthyl)pyrimidin-2-yl]pyrrolidin-3-yl}piperidin-4-ol] | 1.44 | 0.14
– | 3.220 | c1ccc2cc(-c3ccnc(N4CC[C@H](N5CCCCCC5)C4)n3)ccc2c1 [1-{(3S)-1-[4-(2-naphthyl)pyrimidin-2-yl]pyrrolidin-3-yl}azepane] | 3.97 | –
3.55 | 6.735 | OC1CCCN([C@H]2CCN(c3nccc(-c4ccc5ccccc5c4)n3)C2)C1 (stereo partly drawn) [1-{(3S)-1-[4-(2-naphthyl)pyrimidin-2-yl]pyrrolidin-3-yl}piperidin-3-ol] | 2.48 | 0.13
– | – | OC1CCN([C@H]2CCN(c3nccc(-c4ccc5ccccc5c4)n3)C2)CC1 [1-{(3S)-1-[4-(2-naphthyl)pyrimidin-2-yl]pyrrolidin-3-yl}piperidin-4-ol] | 1.31 | 0.26
1.19 | 3.950 | NC[C@@H]1CCCN(c2nccc(-c3ccc4ccccc4c3)n2)CC1 [1-{(4R)-1-[4-(2-naphthyl)pyrimidin-2-yl]azepan-4-yl}methanamine] | 2.66 | –
1.06 | 3.640 | NC[C@H]1CCCN(c2nccc(-c3ccc4ccccc4c3)n2)CC1 [1-{(4S)-1-[4-(2-naphthyl)pyrimidin-2-yl]azepan-4-yl}methanamine] | 3.86 | –
– | – | NC[C@H]1CC[C@@H](c2nccc(-c3ccc4ccccc4c3)n2)CC1 [1-{cis-4-[4-(2-naphthyl)pyrimidin-2-yl]cyclohexyl}methanamine] | 3.4 | –
– | – | NC[C@H]1CC[C@@H](Oc2nccc(-c3ccc4ccccc4c3)n2)CC1 [1-{cis-4-[(4-naphthalen-2-ylpyrimidin-2-yl)oxy]cyclohexyl}methanamine] | 4.2 | –
– | – | O=C(NCCC1CCN(c2nccc(-c3ccc4ccccc4c3)n2)CC1)C(F)(F)F [2,2,2-trifluoro-N-(2-{1-[4-(2-naphthyl)pyrimidin-2-yl]piperidin-4-yl}ethyl)acetamide] | 1.77 | 1.04
1.19 | 1.535 | O=C(NCC[C@H]1CCCN1c1nccc(-c2ccc3ccccc3c2)n1)C(F)(F)F [2,2,2-trifluoro-N-(2-{(2R)-1-[4-(2-naphthyl)pyrimidin-2-yl]pyrrolidin-2-yl}ethyl)acetamide] | 0.84 | 2.3
– | – | O=C(NCC[C@@H]1CCCN1c1nccc(-c2ccc3ccccc3c2)n1)C(F)(F)F [2,2,2-trifluoro-N-(2-{(2S)-1-[4-(2-naphthyl)pyrimidin-2-yl]pyrrolidin-2-yl}ethyl)acetamide] | 1.44 | 0.89
– | – | O=C(NCC1CN(c2nccc(-c3ccc4ccccc4c3)n2)C1)C(F)(F)F [2,2,2-trifluoro-N-({1-[4-(2-naphthyl)pyrimidin-2-yl]azetidin-3-yl}methyl)acetamide] | 1.77 | –
– | – | O=Cc1ccc2cc(-c3ccnc(N4CCC(CNC(=O)C(F)(F)F)CC4)n3)ccc2c1 [2,2,2-trifluoro-N-({1-[4-(6-formyl-2-naphthyl)pyrimidin-2-yl]piperidin-4-yl}methyl)acetamide] | 1.11 | 0.04
– | – | CN(CCN(C)[C@@H]1CCN(c2nccc(-c3ccc4ccccc4c3)n2)C1)C(=O)C(F)(F)F [2,2,2-trifluoro-N-methyl-N-[2-(methyl{(3R)-1-[4-(2-naphthyl)pyrimidin-2-yl]pyrrolidin-3-yl}amino)ethyl]acetamide] | 1.5 | –
– | – | O=C(NC1CCCN(c2nccc(-c3ccc4ccccc4c3)n2)CC1)C(F)(F)F (stereo not shown) [2,2,2-trifluoro-N-{1-[4-(2-naphthyl)pyrimidin-2-yl]azepan-4-yl}acetamide] | 1.1 | 1.87
– | – | O=C(N[C@@H]1CCN(c2nccc(-c3ccc4ccccc4c3)n2)C1)C(F)(F)F [2,2,2-trifluoro-N-{(3R)-1-[4-(2-naphthyl)pyrimidin-2-yl]pyrrolidin-3-yl}acetamide] | 1.97 | –
25.9 | 3.620 | O=C(N[C@H]1CCN(c2nccc(-c3ccc4ccccc4c3)n2)C1)C(F)(F)F [2,2,2-trifluoro-N-{(3S)-1-[4-(2-naphthyl)pyrimidin-2-yl]pyrrolidin-3-yl}acetamide] | 1.59 | 1.66
15.5 | 2.960 | CN1CCN(c2nccc(-c3ccc4ccccc4c3)n2)CC1 [2-(4-methylpiperazin-1-yl)-4-(2-naphthyl)pyrimidine] | 1.16 | 1.81
– | – | CC1CCN(c2nccc(-c3ccc4ccccc4c3)n2)CC1 [2-(4-methylpiperidin-1-yl)-4-(2-naphthyl)pyrimidine] | 1.51 | –

Compound | EC50 [µM] | A = MAX FOLD Induction/DMSO CONTROL [fold] | fold induction at 2 µM | fold induction at 20 µM
NCC1CC2CCC(C1)N2c1nccc(-c2ccc3ccccc3c2)n1 (stereo not shown) [1-{8-[4-(2-naphthyl)pyrimidin-2-yl]-8-azabicyclo[3.2.1]oct-3-yl}methanamine] | 0.55 | – | 1.5 | –
